What all share (format): biochemical
Assay [1] deals with HIV protease A71V variant (Human immunodeficiency virus type 1 group M subtype B, UniProt P04585, A559V/P588I). The settings on record: substrate Dns-SQNYPIVW, pH 5.5. The procedure:
(§1) HIV protease variants, in the form of HIV-GST-K6, and GST-K6 are immobilized to the aminoreactive monolayer surface of the microchannel device (see Example 4, above). HIV-GST-K6 and GST-K6 are diluted to concentrations of 1 μg/ml in 25 mM HEPES buffer (pH 7.5) containing 150 mM NaCl. First, 50 μl of protein-free buffer is transferred through the channels to hydrate the monolayer surface. After 5 min of incubation, 10 μl of the corresponding protein solutions are flushed through the channels to guarantee total replacement with protein-containing solution. Immobilization is finished after 30 min at room temperature. The channels are rinsed with 50 μl immobilization buffer and subjected to analysis. […] Ultrapure water with a resistance of 18 MΩcm is generally used for all aqueous buffers (purified by passage through a Barnstead Nanopure® system).
(§2) HIV protease requires at least a heptapeptide substrate (Moore et al., Biochem. Biophys. Res. Commun., 1989, 159:420). To analyze the activity of the different HIV variants, a continuous assay based on intra-molecular fluorescence resonance energy transfer (FRET) is used. […] Excitation of Trp is at […], and emission of Dns is at 575 nm. Cleavage of the peptide at the Tyr-Pro bond reduces the Dns emission and increases Trp emission at 360 nm. The modified heptapeptide; Dns-[…] is prepared as described (Geoghegan et al.) and analyzed by amino acid analysis, nuclear magnetic resonance and mass spectrometry. The purity is checked by HPLC analysis using a Vydac C-4 column and an acetonitrile gradient in 0.1% TFA. In order to test the activity of all the HIV variants described above, each microchannel with an immobilized HIV variant (see Example 6) is filled with 20 μM of Dns-[…] in 50 mM sodium acetate, pH 5.5, 13% glycerol, 10 mM DTT. Addition of the substrate to the immobilized proteins leads to time-dependent intensity changes in the fluorescence emission spectrum. […] To control for changes in background fluorescence, GST-K6 fusion protein is measured in parallel.
(§3) Competition assays can be carried out to test the specificity of the proteolysis by the HIV variants.

Assay [2] concerns the target L10R HIV protease variant (Human immunodeficiency virus type 1 group M subtype B, UniProt P04585, L498R). The following applies: substrate Dns-SQNYPIVW, pH 5.5. The procedure:
as §1, §2, §3

Assay [3] addresses HIV protease 184V variant (Human immunodeficiency virus type 1 group M subtype B, UniProt P04585, I572V/P588I). The following applies: substrate Dns-SQNYPIVW, pH 5.5. How it is done: as §1, §2, §3
The target of assay [4] is HIV protease L63P variant (Human immunodeficiency virus type 1 group M subtype B, UniProt P04585, L551P). The following applies: substrate Dns-SQNYPIVW, pH 5.5. How it is done: as §1, §2, §3
Assay [5] addresses HIV protease M461 variant (Human immunodeficiency virus type 1 group M subtype B, UniProt P04585, M534I). The settings on record: substrate Dns-SQNYPIVW, pH 5.5. The procedure:
as §1, §2, §3

Assay [6] deals with HIV protease V82F variant (Human immunodeficiency virus type 1 group M subtype B, UniProt P04585, V570F). The following applies: substrate Dns-SQNYPIVW, pH 5.5. How it is done: as §1, §2, §3
The subject of assay [7] is HIV variants (HIV protease variants, HIV-GST-K6). Description: FRET protease activity assay in microchannels, immobilized HIV protease variants. The settings on record: all immobilized variants other than G48V or L90M; substrate Dns-SQNYPIVW 20 μM, pH 5.5. How it is done:
HIV protease variants, in the form of HIV-GST-K6, and GST-K6 are immobilized to the aminoreactive monolayer surface of the microchannel device (see Example 4, above). HIV-GST-K6 and GST-K6 are diluted to concentrations of 1 μg/ml in 25 mM HEPES buffer (pH 7.5) containing 150 mM NaCl. First, 50 μl of protein-free buffer is transferred through the channels to hydrate the monolayer surface. After 5 min of incubation, 10 μl of the corresponding protein solutions are flushed through the channels to guarantee total replacement with protein-containing solution. Immobilization is finished after 30 min at room temperature. The channels are rinsed with 50 μl immobilization buffer and subjected to analysis. […]
HIV protease requires at least a heptapeptide substrate (Moore et al., Biochem. Biophys. Res. Commun., 1989, 159:420). To analyze the activity of the different HIV variants, a continuous assay based on intra-molecular fluorescence resonance energy transfer (FRET) is used. […] The modified heptapeptide; Dns-SQNYPIVW is prepared as described (Geoghegan et al.) and analyzed by amino acid analysis, nuclear magnetic resonance and mass spectrometry. […] Addition of the substrate to the immobilized proteins leads to time-dependent intensity changes in the fluorescence emission spectrum. […] To control for changes in background fluorescence, GST-K6 fusion protein is measured in parallel. […]

Molecules are shown by their SMILES.

`CC(C)(C)NC(=O)[C@@H]1CN(Cc2cccnc2)CCN1C[C@@H](O)C[C@@H](Cc1ccccc1)C(=O)N[C@H]1c2ccccc2C[C@H]1O` [Indinavir]: the “block of protease activity” value in assay [1] is “the A71V variant is not affected”. Also, the “decrease of protease activity” value in assay [2] was “not able to decrease the activity”.
`CC(C)c1nc(CN(C)C(=O)N[C@H](C(=O)N[C@@H](Cc2ccccc2)C[C@H](O)[C@H](Cc2ccccc2)NC(=O)OCc2cncs2)C(C)C)cs1` [Ritonavir]: the “block of protease activity” value in assay [3], in assay [1], in assay [4], in assay [5] and in assay [6] was “unable to block the activity” each time.
For `CC(C)(C)NC(=O)[C@@H]1C[C@@H]2CCCC[C@@H]2CN1C[C@@H](O)[C@H](Cc1ccccc1)NC(=O)[C@H](CC(N)=O)NC(=O)c1ccc2ccccc2n1` [Sequinavir], the “inhibition of HIV variants” value in assay [7] is “will inhibit all the HIV variants except those containing either the G48V or the L90M mutation”.

(Values after patent publication US6596545B1, “Microdevices for screening biomolecules” (priority 1998, dated 2003).)
